Tests used:
[1] = target: BTK (phospho-BTK) in human whole blood (Homo sapiens, UniProt Q06187); test: In vitro PD assay in human whole blood (pBTK assay)
BTK enzyme = target: T1, BTK enzyme (Homo sapiens, UniProt Q06187); test: In vitro BTK kinase assay: BTK-POLYGAT-LS assay; format: biochemical; conditions: ATP 10 μM, read-out: IC50 (10uMATP)
T1 construct: purchased Upstate 14-552
In short: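 Human BTK activity was measured with final 10 μM ATP and 100 nM polyGAT substrate in pH 7.5 Tris buffer with 10 mM MgCl2, DTT, Triton X-100 and casein.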

BTK (phospho-BTK) in human whole blood, sequence (Q06187 whole entry): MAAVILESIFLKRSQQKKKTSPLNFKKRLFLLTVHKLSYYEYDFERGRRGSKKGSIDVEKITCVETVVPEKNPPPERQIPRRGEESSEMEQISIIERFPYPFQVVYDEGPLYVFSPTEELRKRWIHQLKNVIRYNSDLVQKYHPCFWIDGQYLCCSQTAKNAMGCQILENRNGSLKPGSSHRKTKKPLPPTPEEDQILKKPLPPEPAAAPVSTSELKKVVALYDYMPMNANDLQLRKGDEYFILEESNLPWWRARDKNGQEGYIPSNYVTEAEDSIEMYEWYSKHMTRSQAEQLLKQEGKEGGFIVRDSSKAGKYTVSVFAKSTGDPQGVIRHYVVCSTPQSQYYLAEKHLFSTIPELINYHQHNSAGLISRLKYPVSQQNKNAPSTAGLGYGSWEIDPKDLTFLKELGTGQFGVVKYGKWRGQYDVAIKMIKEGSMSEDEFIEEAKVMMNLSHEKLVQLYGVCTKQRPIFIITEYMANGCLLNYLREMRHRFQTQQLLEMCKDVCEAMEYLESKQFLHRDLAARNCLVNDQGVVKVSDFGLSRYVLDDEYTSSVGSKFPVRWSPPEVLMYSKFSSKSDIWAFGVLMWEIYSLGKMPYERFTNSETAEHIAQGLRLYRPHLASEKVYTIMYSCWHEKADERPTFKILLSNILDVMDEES
T1 sequence (Q06187 whole entry): as above

SMILES | IC50 [1] [nM] | IC50 (BTK enzyme) [nM]
COCCn1cc(Nc2nccc(-c3ccc(CNC(=O)N4CC(OC(C)(C)C)C4)c(C(F)(F)F)c3)n2)cn1 [Example I-204, 3-(tert-butoxy)-N-(4-(2-((1-(2-methoxyethyl)-1H-pyrazol-4-yl)amino)pyrimidin-4-yl)-2-(trifluoromethyl)benzyl)azetidine-1-carboxamide] | < 500 | < 10
CC(C)(C)OC1CN(C(=O)NCc2ccc(-c3ccnc(Nc4cnn(CCO)c4)n3)cc2C(F)(F)F)C1 [Example I-205, 3-(tert-butoxy)-N-(4-(2-((1-(2-hydroxyethyl)-1H-pyrazol-4-yl)amino)pyrimidin-4-yl)-2-(trifluoromethyl)benzyl)azetidine-1-carboxamide] | < 500 | < 10
CN1CC(n2cc(Nc3nccc(-c4ccc(CNC(=O)N5CC(OC(C)(C)C)C5)c(C(F)(F)F)c4)n3)cn2)C1 [Example I-206, 3-(tert-butoxy)-N-(4-(2-((1-(1-methylazetidin-3-yl)-1H-pyrazol-4-yl)amino)pyrimidin-4-yl)-2-(trifluoromethyl)benzyl)azetidine-1-carboxamide] | < 500 | < 10
CN1CC[C@H](n2cc(Nc3nccc(-c4ccc(CNC(=O)N5CCC(C(C)(C)C)C5)c(C(F)(F)F)c4)n3)cn2)C1 (stereo partly drawn) [Example I-207, 3-(tert-butyl)-N-(4-(2-((1-((S)-1-methylpyrrolidin-3-yl)-1H-pyrazol-4-yl)amino)pyrimidin-4-yl)-2-(trifluoromethyl)benzyl)pyrrolidine-1-carboxamide] | < 500 | < 10
CN1CC[C@@H](n2cc(Nc3nccc(-c4ccc(CNC(=O)N5CCC(C(C)(C)C)C5)c(C(F)(F)F)c4)n3)cn2)C1 (stereo partly drawn) [Example I-208, 3-(tert-butyl)-N-(4-(2-((1-((R)-1-methylpyrrolidin-3-yl)-1H-pyrazol-4-yl)amino)pyrimidin-4-yl)-2-(trifluoromethyl)benzyl)pyrrolidine-1-carboxamide] | < 500 | < 10
CC(C)(C)C1CCN(C(=O)NCc2ccc(-c3ccnc(Nc4cnn(CCO)c4)n3)cc2C(F)(F)F)C1 (stereo not shown) [Example I-209, 3-(tert-butyl)-N-(4-(2-((1-(2-hydroxyethyl)-1H-pyrazol-4-yl)amino)pyrimidin-4-yl)-2-(trifluoromethyl)benzyl)pyrrolidine-1-carboxamide] | < 500 | < 10
Cn1cc(Nc2nccc(-c3ccc(CNC(=O)N4CCC(C(C)(C)C)C4)c(C#N)c3)n2)cn1 (stereo not shown) [Example I-210, 3-(tert-butyl)-N-(2-cyano-4-(2-((1-methyl-1H-pyrazol-4-yl)amino)pyrimidin-4-yl)benzyl)pyrrolidine-1-carboxamide] | < 500 | < 10
Cn1cc(Nc2nccc(-c3ccc(CNC(=O)c4cnn(C(C)(C)C)c4)c(C#N)c3)n2)cn1 [Example I-211, 1-(tert-butyl)-N-(2-cyano-4-(2-((1-methyl-1H-pyrazol-4-yl)amino)pyrimidin-4-yl)benzyl)-1H-pyrazole-4-carboxamide] | < 500 | < 10
CNC(=O)C(C)(C)n1cc(Nc2nccc(-c3ccc(CNC(=O)N4CC(OC(C)C)C4)c(C)c3)n2)cn1 [Example I-212, 3-isopropoxy-N-(2-methyl-4-(2-((1-(2-methyl-1-(methylamino)-1-oxopropan-2-yl)-1H-pyrazol-4-yl)amino)pyrimidin-4-yl)benzyl)azetidine-1-carboxamide] | < 500 | < 10
COCCn1cc(Nc2nccc(-c3ccc(CNC(=O)N4CC(OC(C)C)C4)c(C)c3)n2)cn1 [Example I-213, 3-isopropoxy-N-(4-(2-((1-(2-methoxyethyl)-1H-pyrazol-4-yl)amino)pyrimidin-4-yl)-2-methylbenzyl)azetidine-1-carboxamide] | < 500 | < 10
Cc1cc(-c2ccnc(Nc3cnn(CCO)c3)n2)ccc1CNC(=O)N1CC(OC(C)(C)C)C1 [Example I-214, 3-(tert-butoxy)-N-(4-(2-((1-(2-hydroxyethyl)-1H-pyrazol-4-yl)amino)pyrimidin-4-yl)-2-methylbenzyl)azetidine-1-carboxamide] | < 500 | < 10
